Data reported in patent publication US5750556A, “2-(aminomethyl)-3,4,7,9-tetrahydro-2H-pyrano-[2,3-E]indol-8-ones and derivatives” (priority 1996, dated 1998).

Key:
dopamine D2 receptor = molecular target: T1, dopamine D2 receptor (Rattus norvegicus, UniProt P61169); assay: [3H]-spiperidone binding, limbic brain homogenate (D2 Spiper); conditions: homogenized limbic brain tissue
T1 construct: from tissue; host or cells: limbic brain tissue, homogenate
Description: High affinity for the dopamine D2 receptor was established by the standard experimental test procedure of Fields, et al., Brain Res., 136, […] (1977) and Yamamura et al., ed., Neurotransmitter Receptor Binding, Raven Press, N.Y. (1978) wherein homogenized limbic brain tissue is incubated with [^3 H]-spiperidone at various concentrations of test compound, filtered washed, and shaken with Hydrofluor scintillation cocktail (National Diagnostics) and counted in a Packard 460 CD scintillation counter.

[1] = molecular target: T2, dopamine autoreceptor (D2 Quin.) (Rattus norvegicus, UniProt P61169); assay: [3H]-quinpirole binding, rat striatal homogenate (D2 Quin., dopamine autoreceptor affinity); conditions: homogenized rat striatal brain tissue, read-out: IC50 (nM) D2 Qmin.
T2 construct: homogenized rat striatal brain tissue is incubated; from tissue; host or cells: rat striatum, homogenate
T2 sequence (P61169 whole entry): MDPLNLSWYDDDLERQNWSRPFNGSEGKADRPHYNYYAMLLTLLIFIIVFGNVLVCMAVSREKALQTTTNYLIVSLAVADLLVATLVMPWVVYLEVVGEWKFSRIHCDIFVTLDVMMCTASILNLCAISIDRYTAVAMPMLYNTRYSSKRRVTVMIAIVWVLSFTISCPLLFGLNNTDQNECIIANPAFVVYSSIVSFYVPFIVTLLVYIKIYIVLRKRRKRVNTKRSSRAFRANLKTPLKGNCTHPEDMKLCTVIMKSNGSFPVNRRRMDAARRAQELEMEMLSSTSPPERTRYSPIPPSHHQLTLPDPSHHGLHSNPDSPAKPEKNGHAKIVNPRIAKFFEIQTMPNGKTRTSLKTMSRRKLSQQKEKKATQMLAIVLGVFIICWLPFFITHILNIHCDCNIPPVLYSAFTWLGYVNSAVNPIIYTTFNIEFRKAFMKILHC

T1 sequence (P61169 whole entry): as above

Structure (SMILES)	IC50 (dopamine D2 receptor) [nM]	IC50 [1] [nM]
COc1ccc(CNCC2CCc3ccc4c(c3O2)CC(=O)N4)cc1 (stereo not drawn) [Example 1c, 2-(4-Methoxy-benzylamino-methyl)-3,4,7,9-tetrahydro-2H-pyrano[2,3e]indol-8-one]	295	–
Cc1ccc(CNCC2CCc3ccc4c(c3O2)CC(=O)N4)c(C)c1 (stereo not drawn) [Example 1f, 2-(2,4-Dimethyl-benzylamino-methyl)-3,4,7,9-tetrahydo-2H-pyrano[2,3-e]indol-8-one]	392	–
O=C1Cc2c(ccc3c2OC(CNCc2ccc(Cl)cc2)CC3)N1 (stereo not drawn) [Example 1e, 2-(4-Chloro-benzylamino-methyl)-3,4,7,9-tetrahydro-2H-pyrano[2,3-e]indol-8-one]	148	0.65
O=C1Cc2c(ccc3c2OC(CNCc2ccccc2)CC3)N1 (stereo not drawn) [Example 1a, 2-(Benzylamino-methyl)-3,4,7,9-tetrahydro-2H-pyrano-[2,3-e]indol-8-one]	142	–
O=C1Cc2c(ccc3c2OC(CNCc2ccc(F)cc2)CC3)N1 (stereo not drawn) [Example 1b, 2-(4-Fluoro-benzylamino-methyl)-3,4,7,9-tetrahydro-2H-pyrano[2,3-e]indol-8-one]	310	–
Cc1ccc(CNCC2CCc3ccc4c(c3O2)CC(=O)N4)cc1 (stereo not drawn) [Example 1d, 2-(4-Methyl-benzylamino-methyl)-3,4,7,9-tetrahydro-2H-pyrano[2,3-e]indol8-one]	103	–

Second part, the compound after the results:

IC50 (dopamine D2 receptor) [nM]	IC50 [1] [nM]	Structure (SMILES)
71.5	–	O=C1Cc2c(ccc3c2OC(CNCc2ccccc2)CC3)N1 (single isomer, unassigned; (-)) [Example 2b, (-)-2-(benzylamino-methyl)-3,4,7,9-tetrhydro-2H-pyrano[2,3-e]indol-8-one]
734	–	O=C1Cc2c(ccc3c2OC(CNCc2ccccc2)CC3)N1 (single isomer, unassigned; (+)) [Example 2a, (+)-2-(benzylamino-methyl)-3,4,9-tetrhydro-2H-pyrano[2,3-e]indol-8-one]
